# Laboratory results: PubChem BioAssay (NCI)
#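 Values below derive from 48-hour exposures of cells grown in 96-well plates, with endpoints linearly interpolated between the two concentrations bracketing the appropriate inhibition level. Abbreviation: GI50, concentration required for 50% inhibition of growth. TGI denotes the concentration required for complete inhibition of growth.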
# Columns and labels:
# Test in all cases: DTP human tumour cell line panel, 48 h
# MDA-MB-231 breast = system: MDA-MB-231 breast
# RPMI-8226 leukemia = system: RPMI-8226 leukemia
# HT29 colon = system: HT29 colon
# SK-OV-3 ovarian = system: SK-OV-3 ovarian
# NCI/ADR-RES ovarian = system: NCI/ADR-RES ovarian
# OVCAR-5 ovarian = system: OVCAR-5 ovarian
# EKVX NSCLC = system: EKVX NSCLC
# RXF 393 renal = system: RXF 393 renal
# HL-60(TB) leukemia = system: HL-60(TB) leukemia
# SF-268 CNS = system: SF-268 CNS
# BT-549 breast = system: BT-549 breast
# CCRF-CEM leukemia = system: CCRF-CEM leukemia
# HCC-2998 colon = system: HCC-2998 colon
# KM12 colon = system: KM12 colon
# OVCAR-8 ovarian = system: OVCAR-8 ovarian
# HCT-116 colon = system: HCT-116 colon
# UACC-257 melanoma = system: UACC-257 melanoma
# SN12C renal = system: SN12C renal
# SW-620 colon = system: SW-620 colon
# NCI-H522 lung = system: NCI-H522 lung
# CAKI-1 renal = system: CAKI-1 renal
# HOP-92 NSCLC = system: HOP-92 NSCLC
# NCI-H23 lung = system: NCI-H23 lung
# COLO 205 colon = system: COLO 205 colon
# SK-MEL-5 melanoma = system: SK-MEL-5 melanoma
# LOX IMVI melanoma = system: LOX IMVI melanoma
# K-562 leukemia = system: K-562 leukemia
# HOP-62 NSCLC = system: HOP-62 NSCLC
# MALME-3M melanoma = system: MALME-3M melanoma
# SF-539 CNS = system: SF-539 CNS
# ACHN renal = system: ACHN renal
# SNB-19 CNS = system: SNB-19 CNS
# SNB-75 CNS = system: SNB-75 CNS
# A549 NSCLC = system: A549 NSCLC
# SK-MEL-2 melanoma = system: SK-MEL-2 melanoma
# TK-10 renal = system: TK-10 renal
# IGROV1 ovarian = system: IGROV1 ovarian
# U251 CNS = system: U251 CNS
# 786-0 renal = system: 786-0 renal
# M14 melanoma = system: M14 melanoma
# HS 578T breast = system: HS 578T breast
# NCI-H226 lung = system: NCI-H226 lung
# MOLT-4 leukemia = system: MOLT-4 leukemia
# A498 renal = system: A498 renal
# SF-295 CNS = system: SF-295 CNS
# DU-145 prostate = system: DU-145 prostate
smiles,measurement,setting,value
O=c1cc(-c2ccccc2)oc2cc(OCc3cn(Cc4ccc(F)cc4)nn3)cc(O)c12,GI50,MDA-MB-231 breast,16.6 µM
same,TGI,MDA-MB-231 breast,> 100 µM
same,GI50,RPMI-8226 leukemia,> 100 µM
same,TGI,RPMI-8226 leukemia,> 100 µM
same,GI50,HT29 colon,> 100 µM
same,TGI,HT29 colon,> 100 µM
same,GI50,SK-OV-3 ovarian,6.57 µM
same,TGI,SK-OV-3 ovarian,> 100 µM
same,GI50,NCI/ADR-RES ovarian,5.57 µM
same,TGI,NCI/ADR-RES ovarian,> 100 µM
same,GI50,OVCAR-5 ovarian,> 100 µM
same,TGI,OVCAR-5 ovarian,> 100 µM
same,GI50,EKVX NSCLC,63.8 µM
same,TGI,EKVX NSCLC,> 100 µM
same,GI50,RXF 393 renal,3.58 µM
same,TGI,RXF 393 renal,30.1 µM
same,GI50,HL-60(TB) leukemia,> 100 µM
same,TGI,HL-60(TB) leukemia,> 100 µM
same,GI50,SF-268 CNS,4.32 µM
same,TGI,SF-268 CNS,> 100 µM
same,GI50,BT-549 breast,7.98 µM
same,TGI,BT-549 breast,> 100 µM
same,GI50,CCRF-CEM leukemia,> 100 µM
same,TGI,CCRF-CEM leukemia,> 100 µM
same,GI50,HCC-2998 colon,> 100 µM
same,TGI,HCC-2998 colon,> 100 µM
same,GI50,KM12 colon,> 100 µM
same,TGI,KM12 colon,> 100 µM
same,GI50,OVCAR-8 ovarian,3.76 µM
same,TGI,OVCAR-8 ovarian,> 100 µM
same,GI50,HCT-116 colon,5.91 µM
same,TGI,HCT-116 colon,> 100 µM
same,GI50,UACC-257 melanoma,> 100 µM
same,TGI,UACC-257 melanoma,> 100 µM
same,GI50,SN12C renal,> 100 µM
same,TGI,SN12C renal,> 100 µM
same,GI50,SW-620 colon,> 100 µM
same,TGI,SW-620 colon,> 100 µM
same,GI50,NCI-H522 lung,6.6 µM
same,TGI,NCI-H522 lung,> 100 µM
same,GI50,CAKI-1 renal,5.76 µM
same,TGI,CAKI-1 renal,> 100 µM
same,GI50,HOP-92 NSCLC,4.43 µM
same,TGI,HOP-92 NSCLC,45.5 µM
same,GI50,NCI-H23 lung,7.7 µM
same,TGI,NCI-H23 lung,> 100 µM
same,GI50,COLO 205 colon,> 100 µM
same,TGI,COLO 205 colon,> 100 µM
same,GI50,SK-MEL-5 melanoma,> 100 µM
same,TGI,SK-MEL-5 melanoma,> 100 µM
same,GI50,LOX IMVI melanoma,> 100 µM
same,TGI,LOX IMVI melanoma,> 100 µM
same,GI50,K-562 leukemia,> 100 µM
same,TGI,K-562 leukemia,> 100 µM
same,GI50,HOP-62 NSCLC,3.76 µM
same,TGI,HOP-62 NSCLC,21.7 µM
same,GI50,MALME-3M melanoma,5.06 µM
same,TGI,MALME-3M melanoma,> 100 µM
same,GI50,SF-539 CNS,5.17 µM
same,TGI,SF-539 CNS,> 100 µM
same,GI50,ACHN renal,6.23 µM
same,TGI,ACHN renal,> 100 µM
same,GI50,SNB-19 CNS,4.51 µM
same,TGI,SNB-19 CNS,83.2 µM
same,GI50,SNB-75 CNS,3.74 µM
same,TGI,SNB-75 CNS,28 µM
same,GI50,A549 NSCLC,19.6 µM
same,TGI,A549 NSCLC,> 100 µM
same,GI50,SK-MEL-2 melanoma,6.8 µM
same,TGI,SK-MEL-2 melanoma,36.1 µM
same,GI50,TK-10 renal,10.4 µM
same,TGI,TK-10 renal,28.6 µM
same,GI50,IGROV1 ovarian,17.6 µM
same,TGI,IGROV1 ovarian,> 100 µM
same,GI50,U251 CNS,13.9 µM
same,TGI,U251 CNS,> 100 µM
same,GI50,786-0 renal,9.26 µM
same,TGI,786-0 renal,42.1 µM
same,GI50,M14 melanoma,> 100 µM
same,TGI,M14 melanoma,> 100 µM
same,GI50,HS 578T breast,6.26 µM
same,TGI,HS 578T breast,> 100 µM
same,GI50,NCI-H226 lung,3.51 µM
same,TGI,NCI-H226 lung,> 100 µM
same,GI50,MOLT-4 leukemia,> 100 µM
same,TGI,MOLT-4 leukemia,> 100 µM
same,GI50,A498 renal,42 µM
same,TGI,A498 renal,> 100 µM
same,GI50,SF-295 CNS,10.2 µM
same,TGI,SF-295 CNS,46.8 µM
same,GI50,DU-145 prostate,> 100 µM
same,TGI,DU-145 prostate,> 100 µM
